# Assay results as given in PMC11137182, “Selective and brain-penetrant ACSS2 inhibitors target breast cancer brain metastatic cells” (Frontiers in Pharmacology, 2024).
# Tests used:
# MDA-MB-231BR cells [1] = assay: Clonogenic survival assay; format: cell-based; details: 100 μM, 48 h treatment, 10 days growth
# Procedure: Triple-negative brain trophic cells MDA-MB-231BR and 4T1BR cells were a kind gift from Dr. Patricia Steeg (Center for Cancer Research, National Cancer Institute) ([Achrol et al., 2019]). Both cell lines were cultured in DMEM supplemented with 10% fetal bovine serum (FBS), 5% 10,000 Units/mL Penicillin-10,000 μg/mL Streptomycin, and 5% 200 mM L-Glutamine. For crystal violet staining, 5 × 10^4 cells were plated and subjected to the treatments as described in the individual figures and then stained with 0.5% crystal violet prepared in a 1:1 methanol-water solution followed by PBS washes. ACSS2 inhibitors were dissolved in 100% ultra-pure DMSO.
# To assess clonogenic survival, 1 × 10^5 cells were seeded into a 6-well plate until 70%–80% confluency and treated for 48 h with analogs at 100 uM (unless otherwise stated in the figure legend). After 48 h, cells were trypsinized and counted using hemocytomer, and 1 × 10^4 cells per treatment were plated into a 6-well plate with fresh culture medium and allowed to grow for 10 days. Following 10-day incubation, cells were washed twice with PBS, stained with crystal violet for 30 min, and washed with dH2O twice. Colonies >50mircons were counted. For crystal violet staining, 0.5% crystal violet was prepared in a 1:1 methanol-water solution.
# MDA-MB-231BR cells [2] = assay: BODIPY staining of lipid droplets; format: cell-based; details: 100 μM, 48 h
# Procedure: Cells were treated with 5uM BODIPY 493/503 (Invitrogen) and NucBlue® Live reagent (Invitrogen) in PBS for 15 min, washed 2x with 1xPBS, fixed using 4% paraformaldehyde for 30 min at RT in the dark and washed in 1xPBS prior to mounting and imaging on EVOS FL (Life Technologies) using […] for BODIPY and DAPI channel for NucBlue.
# hACSS1 = target: T1, hACSS1 (Homo sapiens, UniProt Q9NUB1); assay: SPR binding to immobilized hACSS1; details: single concentration 25μM injection
# T1 construct: purchased MyBioSource (www.mybiosource.com)
# T1 sequence (Q9NUB1 38-689): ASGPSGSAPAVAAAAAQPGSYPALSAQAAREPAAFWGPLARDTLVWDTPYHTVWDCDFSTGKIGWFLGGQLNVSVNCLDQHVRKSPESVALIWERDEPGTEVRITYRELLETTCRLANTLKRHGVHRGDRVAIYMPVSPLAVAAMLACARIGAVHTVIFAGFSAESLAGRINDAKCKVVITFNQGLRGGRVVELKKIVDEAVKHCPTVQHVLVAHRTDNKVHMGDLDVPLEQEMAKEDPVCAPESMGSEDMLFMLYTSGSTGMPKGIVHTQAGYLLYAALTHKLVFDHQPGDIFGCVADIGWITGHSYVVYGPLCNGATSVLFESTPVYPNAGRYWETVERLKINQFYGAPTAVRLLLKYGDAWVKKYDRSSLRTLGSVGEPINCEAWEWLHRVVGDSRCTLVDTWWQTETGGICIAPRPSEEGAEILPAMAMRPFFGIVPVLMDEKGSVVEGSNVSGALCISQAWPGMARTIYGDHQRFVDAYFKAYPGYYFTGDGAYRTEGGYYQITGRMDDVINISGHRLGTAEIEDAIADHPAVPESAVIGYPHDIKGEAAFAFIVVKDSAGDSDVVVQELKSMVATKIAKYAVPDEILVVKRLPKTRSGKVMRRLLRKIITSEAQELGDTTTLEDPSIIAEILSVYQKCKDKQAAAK
# Procedure: All binding assays were performed on a ProteOn XPR36 SPR Protein Interaction Array System (Bio-Rad Laboratories, Hercules, CA, United States). The instrument temperature was set at 25°C for all kinetic analyses. ProteOn GLH sensor chips were preconditioned with two short pulses each (10 s) of 50 mM NaOH, 100 mM HCl, and 0.5% sodium […]. Then, the system was equilibrated with running buffer (1x PBS pH 7.4, 3% DMSO, and 0.005% polysorbate 20). The surface of a GLH sensor chip was activated with a 1:100 dilution of a 1:1 mixture of 1-ethyl-3-(3-dimethylaminopropyl) carbodiimide hydrochloride (0.2 M) and sulfo-N-hydroxysuccinimide (0.05 M). Immediately after chip activation, the human ACSS2 or hACSS1 proteins were prepared at a concentration of 10 μg/mL in 10 mM sodium acetate, pH 5.5, and injected across ligand flow channels for 5 min at a flow rate of 30 μL/min. Then, after unreacted protein had been washed out, excess active ester groups on the sensor surface were capped by a 5 min injection of 1M ethanolamine HCl (pH 8.0) at a flow rate of 5 μL/min. […] Data were analyzed using the ProteOn Manager Software version 3.0 (Bio-Rad). […]
# MDA-MB-231BR cells [3] = assay: Cell death by propidium iodide flow cytometry; format: cell-based; details: 100 μM, 48 h
# Procedure: (§1) Cells were prepared according to manufacturer protocol (BD Pharmingen, Propidium Iodine). Briefly, cells were trypsinized (0.25% Trypsin), counted, washed twice with 1xPBS, and resuspended in 100uL 1X binding buffer incubated with 5 uL Propidium Iodine (PI) staining solution for 15 min in the dark at room temperature. Following incubation, the volume was brought up to 500uL of 1X binding buffer. Tubes were then analyzed using a Guava easyCyte flow cytometer. All data were collected and analyzed using a Guava EasyCyte Plus system and CytoSoft (version 5.3) software (Millipore). Data are gated and expressed relative to the appropriate unstained and single-stained controls.
# 4T1BR cells = assay: Cell death by propidium iodide flow cytometry; format: cell-based; details: 100 μM, 48 hours
# Procedure: as §1
smiles,measurement,setting,value
N[C@H](C(=O)N1CCCC(c2ccccc2)(c2ccccc2)C1)C1CC1 [AD-8007],clonogenic survival,MDA-MB-231BR cells [1],significant reduction in clonogenic survival
same,lipid droplet content,MDA-MB-231BR cells [2],significantly reduced lipid droplet content
same,binding to hACSS1 (specificity),hACSS1,specifically bind ACSS2 and not the mitochondrial isoform hACSS1
same,cell death (PI+ cells),MDA-MB-231BR cells [3],significantly increased cell death
same,cell death (PI+ cells),4T1BR cells,significantly increased cell death
